The text below walks through data of US6680295B1, “Method and pharmaceutical composition for prevention and treatment of brain damage” (priority 1994, dated 2004).

Series [1] has as its target T1, PACAP binding sites in rat brain membrane preparations (Rattus norvegicus, UniProt P32215).
T1 construct: from tissue; host or cells: rat brain membrane preparations (E18 whole brain; other ages and regions also dissected)
T1 sequence (P32215 20-523): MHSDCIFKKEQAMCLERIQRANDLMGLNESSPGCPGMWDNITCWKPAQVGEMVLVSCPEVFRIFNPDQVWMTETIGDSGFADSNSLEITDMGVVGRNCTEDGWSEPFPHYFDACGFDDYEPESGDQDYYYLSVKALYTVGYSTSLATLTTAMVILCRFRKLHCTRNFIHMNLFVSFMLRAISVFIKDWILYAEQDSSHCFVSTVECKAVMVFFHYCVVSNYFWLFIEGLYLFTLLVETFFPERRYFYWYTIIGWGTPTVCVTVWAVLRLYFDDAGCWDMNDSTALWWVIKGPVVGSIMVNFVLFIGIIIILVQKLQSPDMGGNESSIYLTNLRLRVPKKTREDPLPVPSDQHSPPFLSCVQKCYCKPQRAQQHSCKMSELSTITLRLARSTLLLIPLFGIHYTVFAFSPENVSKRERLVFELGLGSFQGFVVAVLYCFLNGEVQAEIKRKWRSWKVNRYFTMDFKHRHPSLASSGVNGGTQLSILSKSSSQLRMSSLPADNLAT
As to the kind of experiment: Radioreceptor assay: displacement of 125I-PACAP27 binding to E18 rat brain membranes. Conditions: for displacement of 125I-PACAP27 binding: unlabeled peptide. The text has this: Male CD rats (Charles River Breeding Labs., Wilmington, Mass.) were used throughout this example. The following regions of the brain were dissected at the indicated ages: embryonic day E14 (whole brain); E18 (whole brain, neocortex, hippocampus, and diencephalon); postnatal days P0, P7 and P14 (whole brain, neocortex, hippocampus, diencephalon, and cerebellum); and 1-, 2- and 3-months old (MO) (whole brain, neocortex, hippocampus, diencephalon, and cerebellum). After dissection, each region was immediately frozen on dry-ice and stored at −70 C. for up to 2 months until the receptor and peptide levels were determined. […] Arimura, et al., Endocrinology 129: 2787-2789 (1991). […] Gottschall, et al., Endocrinology 127: 272-277 (1990), and Gottschall, et al., FASEB J 5: 194-199 (1991).
Gottschall, et al., Endocrinology 127: 272-277 (1990) and Gottschall, et al., FASEB J 5: 194-199.

The test system of series [2] is hippocampal CA1 neurons. As to the kind of experiment: Forebrain ischemia, hippocampal CA1 neuronal cell death, iv infusion started immediately after ischemia. Format: in vivo, rat. The procedure:
(§1) The clips were removed 15 minutes later. […] The incision wound was closed.
PACAP38 was administered i.v. to rats (see example 5) over one week, starting immediately after ischemia/reperfusion. […] In this experiment, 20 μg/kg (approximately 4 nmol/kg) was given as a bolus iv injection before the infusion began.

The test system of series [3] is dissociated hippocampal cultures. As to the kind of experiment: Prevention of gp120-induced neuronal cell death in dissociated hippocampal cultures. Format: cell-based, mice. Conditions: 1 pM gp120, five days. On the procedure:
The cultures were prepared from 16-17 day-old mice embryos (C57B1/6) as previously described. Brenneman, et al., Nature 335: 639-642 (1988). Before treatment, the cultures were given a complete change of medium. […] Cell counts were conducted on 60 fields, 0.12 mm^2 each. Neurons were identified immunocytochemically using antiserum against neuron specific enolase. Schmechel, et al., Nature 276: 834-836 (1978). Each value is the mean of 3-5 dishes.
Brenneman, et al. Nature 335: 639-642 (1988). […] Brenneman, et al. Nature 335: 639-642 (1988). […] Arimura, et al., Trends Endocr. Metab. 3: 288-294 (1993). Arimura et al., Ann NY Acad. Sci. 739:228-243 (1994).

In series [4] the test system is hippocampal CA1 neurons. As to the kind of experiment: Forebrain ischemia/reperfusion (four vessel occlusion), hippocampal CA1 neuronal cell death, icv administration.
Protocol: Each column indicates viable cell number 7 days after 15 min ischemia of the forebrain of rats which were intracerebroventricularly administered the vehicle alone or the vehicle containing varying amounts of PACAP38. The numbers of cells are expressed by percentages of live cells as compared with the cells in the same area of the intact rat hippocampus. […] FIGS. 13A-F are microphotographs of coronal sections of the right hippocampal CA1 from intact rats and rats subjected to forebrain ischemia for 15 min. The sections were stained with cresyl violet (A, B, C) and immunostained for MAPII (D, E, F). A, D: Intact rats. B, E: 7 days after ischemia in vehicle-infused (icv) rats. […] PACAP38 administration started immediately after ischemia.
Adult male rats of CD strain weighing 270-300 g body weight (Charles River Breeding labs, Wilmington, Miss.) were used. Under Ketamine anesthesia, the bilateral vertebrate arteries were permanently occluded at the first cervical vertebra by electrocoagulation. Bilateral carotid arteries were exposed and a loop of silicon rubber tubing was placed around each carotid artery, leaving the end of the tubing outside the suture. The animal was left in the laboratory with water, but without food. The following morning, both loops around the carotid arteries were pulled and artery clips were applied on the loops at the portion close to the skin so that both carotid arteries were occluded and ischemia of the brain occurred as long as the clips remained. The clips were removed 15 minutes later. During ischemia, body temperature was monitored by thermometer placed in the rectum and the body temperature was maintained at 37° C. by radiation heat from light bulb. […] Reperfusion of bilateral carotid arteries was assured by direct visual examination. The incision wound was closed.
Soon after the reperfusion of the carotid arteries began, the animal was placed on a stereotaxic instrument, the skull was exposed, and a small hole was made by a dental drill at anterior 0.6 lateral 1.5, vertical 5.0 mm from the bregma and skull surface, and guided cannula (Alza Corp., Palo Alto, Calif.) was inserted into the hole so that the tip of the cannula is in the lateral cerebroventricle and fixed on the skull by dental cement. The incised skin was then closed by suture. Then 10 μl of artificial cerebrospinal fluid (CSF) containing 0.1% bovine serum albumin (ESA) or the vehicle containing varying amounts of PACAP38 was introduced.
PACAP38 was icv infused into the right lateral cerebroventricle of rats having neuronal cell damage in the CA1 of the hippocampus as discussed in example 5. The effect of the icv infusion of PACAP38 on ischemia-induced neuronal cell death in the hippocampal CA1 in rats was measured.
Series [5] deals with hippocampal CA1 neurons. As to the kind of experiment: Forebrain ischemia, hippocampal CA1 neuronal cell death, iv infusion started 24 hrs after ischemia. The series is classed as in vivo, rat. Conditions: bolus and infusion started 24 hrs after ischemia. The procedure:
FIG. 18 is a graph showing the cytoprotective effect of iv infusion of PACAP38 which started 24 hrs. after ischemia in rats.
as §1
Neuronal cell death in CA1 induced by forebrain ischemia progresses slowly. One day after ischemia/reperfusion many viable neurons were still seen in CA1. However, nearly all neurons died one week after ischemia. Therefore, if the administration of PACAP38 is started 24 hrs after ischemia, the treatment could possibly still prevent the slow death of the neurons. To test this hypothesis, a bolus iv injection and subsequent iv infusion of PACAP38 was started 24 hrs after ischemia.

For series [6], the system named is dorsomedial population of dorsal root ganglia (DRG18). As to the kind of experiment: Natural neuronal cell death in dorsal root ganglion DRG18 of chick embryo. To be noted: 25 nM in the egg daily E3 1/2 to E8 1/2, counted on E9, p<0.01.
Protocol: The control group received vehicle and the experimental group received PACAP38 (25 nM in the egg) daily from E3 ½ to E8 ½. Number is the mean of the numbers of degenerating cells in 6 ganglia in each group. Bar indicates SEM.
Effect of PACAP on natural neuronal cell death was also examined in chick embryos using similar experimental procedures described by Hamburger and Montalcini. […] Fertilized White Leghorn eggs (Troslow Farms) were incubated at 39 C. at 99% humidity. A small hole was opened at the top of the egg on E3 ½ (Stage 23) by punching with micro-dissecting tweezers. One μl/g of egg weight of sterile Tyrode solution or solution containing 5 μM or 25 μM PACAP38 was administered daily through the hole onto the highly vascularized chorioallantoic membrane from day E3 ½ through E8 ½ in the experiment for dorsal root ganglion (DRG), and from E6 through E9 for lumbar motor column (LMC). […]
The magnification used (×400), one can observe DRG18 divided into two populations of cells: large differentiating ventrolateral (VL) and small, late differentiating dorsomedial (DM) cells. […] Macrophages containing debris of several cells were encountered rarely and counted as two degenerating cells. Every second section of the ganglia was counted, and the sum multiplied by two to obtain a data point. A total of 6 ganglia were counted in each of the control and experimental groups, respectively.
Series [7] relates to motoneurons in the lateral motor column (LMC). As to the kind of experiment: Survival of motoneurons in lumbar lateral motor column of chick embryo.
Protocol: Embryos received vehicle, or 5 nM or 25 nM PACAP (concentrations in the egg after injection) daily from E6 to E9. Average LMC is represented by 320-340 sections and cell counts were made on every tenth section. Sum of live cells in all counted sections multiplied by 10 is shown in this figure. Numbers indicate mean numbers of live cells in 6 LMC in each group. Bars indicate SME.
Effect of PACAP on natural neuronal cell death was also examined in chick embryos using similar experimental procedures described by Hamburger and Montalcini. […] Fertilized White Leghorn eggs (Troslow Farms) were incubated at 39 C. at 99% humidity. A small hole was opened at the top of the egg on E3 ½ (Stage 23) by punching with micro-dissecting tweezers. […]
In the lumbar motor column (LMC), intact motoneurons were easily distinguishable from surrounding cells due to their large size and deeply stained perikaryon. Only those neurons with an intact nuclear membrane and at least one visible nucleolus were counted as live cells. Every tenth section of the LMC was counted, and the sum of the sections multiplied by ten to obtain a data point. A total of 6 motor columns was counted in each of the control and experimental groups.
Series [8] relates to dissociated hippocampal cultures. Conditions: cited from earlier work.
Series [9] deals with T2, Type I PACAP receptor (Homo sapiens, UniProt P41586).
T2 sequence (P41586 21-468): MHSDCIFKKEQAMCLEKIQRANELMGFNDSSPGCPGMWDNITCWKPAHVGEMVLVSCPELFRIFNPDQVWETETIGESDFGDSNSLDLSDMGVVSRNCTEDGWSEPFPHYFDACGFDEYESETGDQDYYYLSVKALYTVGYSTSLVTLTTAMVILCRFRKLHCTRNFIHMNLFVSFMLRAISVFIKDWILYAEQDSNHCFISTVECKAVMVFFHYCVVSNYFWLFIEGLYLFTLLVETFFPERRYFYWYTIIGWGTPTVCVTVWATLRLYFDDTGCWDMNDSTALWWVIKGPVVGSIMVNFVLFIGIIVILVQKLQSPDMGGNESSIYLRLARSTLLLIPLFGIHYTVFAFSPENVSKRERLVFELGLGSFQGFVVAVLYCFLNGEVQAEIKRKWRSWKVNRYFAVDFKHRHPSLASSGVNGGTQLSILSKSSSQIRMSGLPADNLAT
Conditions: cited from earlier work.

In series [10] the test system is cultured rat astrocytes, intracellular cAMP. As to the kind of experiment: cAMP response in cultured rat astrocytes (RIA). Format: cell-based. To be noted: astrocyte cultures. On the procedure:
Astrocytes cultures were prepared from brain of neonatal rats. Astrocytes were allowed to proliferate for 7-10 days before experiments.
(§2) Yada, et al., J. Biol. Chem. 269: 1290-1293 (1994).

Series [11] concerns CNS cultures, cAMP. As to the kind of experiment: cAMP in CNS cultures at the peptide concentrations that increase neuronal survival. The series is classed as cell-based. To be noted: 0.1 nM, any CNS culture system.
For series [12], the system named is cultured rat neurons, intracellular cAMP. As to the kind of experiment: cAMP response in cultured rat neurons (RIA). Format: cell-based. Conditions: neuron cultures. The procedure: Neuron cultures were prepared from brains of 1 day-old rats. 1×10^7 cells were plated in each dish (35 mm diameter).
as §2

The conditions of series [13]: rat, in vivo. On the procedure: FIG. 15 is a graph showing ^125I -PACAP 38 levels in brain tissue 10 minutes after icv injection, at 1×10^6 cpm ^125I-PACAP38.
This calculation was based on the transport of ^125I-labelled peptide given icv as a bolus but slow injection over 5 min. 1×10^6 cpm ^125I-PACAP38 was injected icv in anesthetized rats, the cpm in the brain tissues 10 min after the injection is shown in FIG. 15.
The labelled peptide was injected into the right lateral ventricle.

The target of series [14] is T3, PACAP receptor (PACAP binding sites) in rat brain membrane preparations (rat, UniProt P32215 20-523).
T3 construct: whole, on cells; Native receptor in crude brain membranes, not a recombinant protein; also called the receptor
T3 sequence (looked up): T1 sequence (P32215 20-523)
As to the kind of experiment: Scatchard analysis of displacement of 125I-PACAP27, E18 rat brain membranes; reference PACAP27. (In general: Loss of bound radioactivity is the signal in a displacement assay; it reports binding, not function.)

No end group written: not given here.

For “GHRH: structurally related peptide used in binding competition”, the “displacement of 125I-PACAP27 binding” value in [1] is recorded as “did not displace”.

Regarding PACAP[1-38]-NH2 [PACAP38], the “effect on ischemia-induced neuronal cell death in CA1” value in series [2] (iv 16 pmol/hr over one week after 20 μg/kg iv bolus) is recorded as “attenuated neuronal cell death significantly”; in series [2] (iv 160 pmol/hr over one week after 20 μg/kg iv bolus) it was “attenuated neuronal cell death significantly”; in [4] (icv infusion over one week, viable neurons 7 days after ischemia), “significantly prevented the neuronal cell death”; in series [5] (iv 16 pmol/hr), “significantly (<0.01) attenuated brain cell death”; in series [5] (iv 160 pmol/hr), “significantly (<0.01) attenuated brain cell death”. The “affinity for the receptor relative to PACAP27 (higher)” value in [1] is given as “about 10 fold”. In [1], the “displacement of 125I-PACAP27 binding” value is “more effectively than did PACAP27”. Besides, the “lower peak of bimodal dose-response curve of cytoprotection” value in [3] was determined as 0.1 pM. The “upper peak of bimodal dose-response curve of cytoprotection” value in [3] was 0.1 nM. The “most effective continuous icv infusion rate” value in [4] (after bolus 450 ng/10 μl H2O over 10 min, infusion over seven days, FIG. 12) is 45 ng/µL/h. The “icv dose of maximum cytoprotective effect (bell-shaped dose-response)” value in series [4] (icv infusion into right lateral cerebroventricle over one week, FIG. 16) is 1 pmol/h. For the same molecule, in series [4] (icv osmotic pump 1 pmol/h over one week, started immediately after ischemia, 7 days), the “effect on ischemia-induced cell death in CA1 (histology)” value is reported as “prevented ischemia-induced cell death in CA1”. For the same molecule, the “most effective icv dose” value in series [4] (icv over 7 days, 10, 1, 0.1 and 0.01 pmol/h tested, FIG. 14) came out at 1 pmol/h. Further, the “number of degenerating cells less than in untreated embryos” value in series [6] is on record as 37.2%. The “increase in number of motoneurons per motor column” value in [7] (5 nM in the egg daily E6 to E9, counted on E10) was 7.2%; in series [7] (25 nM in the egg daily E6 to E9, counted on E10), 12.5%.

As for VIP: vasoactive intestinal peptide, in series [8] (0.1 nM), the “effect on neuronal death in gp120-treated cultures” value is recorded as “prevented neuronal death”. Besides, the “effect on neuronal cell death associated with gp120 treatment” value in [8] (murine hippocampal cultures) is “potently and completely prevented”. Besides, in series [1], the “displacement of 125I-PACAP27 binding” value was “did not displace”. Moreover, in series [9], the “affinity for Type I PACAP receptor, times less than that of PACAP” value is reported as 1000 times and the “binding to Type I PACAP receptor” value is listed as “do not bind”. Further, the “potency in increasing cellular cAMP, times less potent than PACAP” value in series [10] was “approximately 1000 times”. Further, in [11], the “cAMP response at the concentration that increases neuronal survival” value is on record as “no increases in cAMP”. Further, the “potency in increasing cellular cAMP, times less potent than PACAP” value in series [12] is recorded as “approximately 1000 times”.

For the molecule ^125I-PACAP38, in [13], the “CPM in right hippocampus relative to left” value is “four times greater”, the “radioactivity in left hippocampus” value was 5 cpm per mg tissue and the “radioactivity in right hippocampus” value worked out at 20 cpm per mg tissue.

With “glucagon: structurally related peptide used in binding competition”, the “displacement of 125I-PACAP27 binding” value in series [1] is on record as “did not displace”.

Consider “secretin: structurally related peptide used in binding competition”, for which the “displacement of 125I-PACAP27 binding” value in series [1] was “did not displace”.

B1: Pituitary adenylate cyclase activating polypeptide, complete form with 38 amino acids (PACAP38) (peptide)
peptide: HSDGIFTDSYSRYRKQMAVKKYLAAVLGKRYKQRVKNK-NH2
notes: Synthetic peptide made by solid phase synthesis; also called PACAP[1-38]-NH2; unlabeled PACAP38
B1: in series [14], the “fold higher affinity than PACAP27” value is roughly 10 fold.
